Data set [1] relates to STIL CCD peptide. In words: AUC sedimentation velocity (SV), oligomeric state. The format is physicochemical. The settings on record: for sw / mw (solution mass from c(s) fit) / f/f0 / sw(20,w) / oligomeric state (average number of monomers in the oligomer): AUC-SV, 60 krpm; for sw / mw (solution mass from c(s) fit) / oligomeric state (average number of monomers in the oligomer): 20 °C; for sw / mw (solution mass from c(s) fit) / f/f0 / sw(20,w): pH 6.8; for mw (solution mass from c(s) fit) / oligomeric state (average number of monomers in the oligomer): 95% confidence level; for oligomeric state (average number of monomers in the oligomer): continuous c(s), 25 mM sodium phosphate pH 6.8, NaCl. The procedure:
Previously, we and others have shown by size-exclusion chromatography and multi-angle light scattering that the oligomerization of a STIL CCD peptide is concentration dependent. However, these studies were qualitative and the interaction was not quantified. To quantify the oligomerisation of the STIL CCD peptide, analytical ultracentrifugation (AUC) sedimentation velocity (SV) and sedimentation equilibrium (SE) experiments were performed (Figure 2A, Table 1 and Figures S4–S9, S18 and S19). AUC-SV experiments were conducted at several concentrations to explore how the oligomeric state changed with concentration in the low-to-high µM concentration range, and also to estimate the dissociation constants of the oligomerization of the STIL CCD peptide.
Analytical ultracentrifugation (AUC) experiments were carried out using a Beckman Optima XL-A or XL-I analytical ultracentrifuge. Measurements were performed at 20 °C unless otherwise stated, using an An-50 or An-60 rotor, in Sodium Phosphate Buffer pH 6.8 (25 mM Na2PO4 with addition of 137 mM NaCl, pH measured using Jenway (TM) 3510 benchtop and adjusted using 1M HCl and 1M NaOH solutions). The partial specific volume ( υ¯ ) for each peptide were calculated in Sedfit using values from Cohn and Edsall. The buffer densities and viscosities were calculated using UltraScan III [54].
Sedimentation velocity (SV) experiments were performed in EPON 2-channel centerpieces with quartz windows or aluminium centrepieces with sapphire windows. The samples were centrifuged at 50 or 60 krpm where stated, with absorbance measurements taken from a radial range of 5.7–7.3 cm. 120 scans were taken at 5 min intervals, the data were fit in Sedfit to a continuous c(s) distribution model at a 95% confidence level. The frictional ration and baseline were floated, and Time-invariant and Radial-invariant noise were fit. Initially data were fit between a range of Svedberg ratio of 0–15, but this was reduced to 0–3 for all data as there were no larger species. The residuals for each individual fit are shown in Figures S14–S17 as a bitmap in which the color indicates the difference between the model fit and the raw data over the radial range to which the data were fitted. The scans are in vertical chronological order.

In data set [2] the target is T1, STIL CCD peptide (Homo sapiens, UniProt Q15468, L736E).
T1 construct: STIL CCD718–749 WT; made in house; host or cells: chemical synthesis (Fmoc-SPPS on rink amide, C-terminal amide)
T1 sequence (Q15468 718-749 L736E): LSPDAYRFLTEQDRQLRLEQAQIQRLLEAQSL
In words: Fluorescence-based binding (micro-scale thermophoresis instrument), self-association. To be noted: 5 µM labeled + unlabelled same peptide 9 nM–300 µM; 25 mM Na2PO4 pH 6.8, 5% DMSO.

Data set [3] in a line: CD spectroscopy, helicity. The format is physicochemical. The settings on record: 5 °C. The text has this:
(§1) Next, we used circular dichroism (CD) spectroscopy to probe the secondary structures of these WT CCD peptide assemblies. […] The spectra all had minima at 208 and 222 nm indicative of largely α-helical structures. From the high-concentration spectra we estimated ≈47% helix. To compare how the stabilities of these helical assemblies changed with concentration, we followed the changes in MRE222 with temperature over the same concentration range (Figure 2D, Table S1). Sigmoidal curves indicative of cooperative unfolding were apparent at all concentrations, indicating a cooperatively folded, oligomeric species. […] The temperature-dependent CD measurements were performed to determine the oligomerization-dependent thermal stability of the CCD. […] CD spectra of the peptides were recorded using a J-810 spectropolarimeter (Jasco) in a 0.1 cm and 1 cm quartz cuvette for far-UV CD spectroscopy, in a spectral range of 190 nm to 260 nm. The buffer used in the CD measurements was 25 mM sodium phosphate buffer pH = 6.8 with ionic strength of 154 mM (adjected by NaCl). The thermal melting of all STIL CCD peptides were measured as described. The graphs were fitted to Boltzmann equation in order to generate the Tm. Normalization to mean residue ellipticity was performed. The 100% helicity was calculated (with normalization to the length of the peptide and the condition of the measurement) as MRE × 10^−3 of −38 (Deg × cm^2 × dmol^−1 × res^−1).

The format of data set [4] is physicochemical. To be noted: for Tm: CD 222 nm, Boltzmann fit.
Text: as §1

For data set [5] the following is noted: ref [14]; cited from earlier work. From the text: Presumably, this is due to the disruption of the hydrophobic CC interactions upon mutation from the hydrophobic Leu to the charged Glu. […] Other ...

Read-outs that look alike come from different tables or passages of the source.

This is an account of results in publication PMC10572602, “Molecular Mechanism of STIL Coiled-Coil Domain Oligomerization” (International Journal of Molecular Sciences, 2023).

As to “L SPDAYRF LTEQDRQ LRLEQAQ IQRLLEA QSL-NH2 [STIL CCD718–749 L736E, STIL CCD peptide with destabilising L736E mutation; PDB 8oyk]”, the “Oligomeric State (at 10 µM)” value in data set [1] (10 µM) was “Monomer”. The values for the sw in data set [1] (10 µM) and in data set [1] (500 µM) were 0.590 S and 0.721 S, respectively. In addition, the “mw (solution mass from c(s) fit)” value stood at 3849 Da in data set [1] (10 µM) and 3871 Da in data set [1] (500 µM). Besides, the f/f0 amounted to 1.460 in data set [1] (10 µM) and 1.201 in data set [1] (500 µM). The “sw(20,w)” value in data set [1] (10 µM) is recorded as 0.608 S; in data set [1] (500 µM) it was 0.742 S. Besides, the “oligomeric state (average number of monomers in the oligomer)” value in data set [1] (10 µM, absorbance) turned out to be 1.00 × monomer mass; in data set [1] (10 µM, absorbance, listed as CCD718–749-L736E) it was 1 × monomer mass; in data set [1] (10 µM, absorbance, listed as STIL-L736E) it was 1.0 × monomer mass; in data set [1] (500 µM) it was 1 × monomer mass; in data set [1] (500 µM, listed as STIL-L736E), 1.0 × monomer mass. Moreover, the “binding or oligomerization (in words)” value in data set [2] is reported as “no binding or oligomerization”. In addition, the “concentration dependence of CD spectrum / helical folding (in words)” value in data set [3] (different peptide concentrations (WT 5–100 µM), pH 6.8) is reported as “no concentration dependence”. The same substance registered an MRE222 nm in data set [3] (CD at 50 µM, 25 mM sodium phosphate pH 6.8, 154 mM NaCl) of −23.3 kdeg cm^2 dmol^−1 res^−1. In data set [3] (from MRE222 (100% = −38), CD at 50 µM, 25 mM sodium phosphate pH 6.8, 154 mM NaCl), the “% Helicity” value came out at 62%. The Tm in data set [4] (5 µM, sodium phosphate pH 6.8) was found to be 18±1 °C; in data set [4] (25 µM, sodium phosphate pH 6.8), 17±2 °C; in data set [4] (50 µM, 25 mM sodium phosphate pH 6.8, 154 mM NaCl), 10 ± 2 °C; in data set [4] (100 µM, sodium phosphate pH 6.8), 12±1 °C. The “concentration dependence of Tm / thermal stability (in words)” value in data set [4] (pH 6.8) was “No detectable change in the Tm at different L736E concentrations”. In addition, the “thermal stability of mutant peptide (in words)” value in data set [5] was “leads to a decrease in its thermal stability”.
